Measured values published in patent US11051514B2, “Antifungal compounds” (Mycovia Pharmaceuticals, Inc., priority 2015, dated 2021).

Legend:
[1] = tested on: Septoria tritici (SEPTTR); assay: Evaluation of fungicidal activity: leaf blotch of wheat, disease control on wheat seedlings; type: in vivo; conditions: for 3DC % control / 3DP % Control: wheat (variety Yuma) seedlings; for fungicidal activity against the fungi responsible for leaf blotch of wheat (Septoria tritici): in comparison with example 5 of U.S. Pat. No. 8,748,461
Description: Example 3: Evaluation of Fungicidal Activity: Leaf Blotch of Wheat (Mycosphaerella graminicola; Anamorph: Septoria tritici; Bayer code […]) Technical grades of materials were dissolved in acetone, which were then mixed with nine volumes of water containing 110 ppm Triton X-100. The fungicide solutions were applied onto wheat seedlings using an automated booth sprayer to run-off. All sprayed plants were allowed to air dry prior to further handling. Wheat plants (variety Yuma) were grown from seed in a greenhouse in 50% mineral soil/50% soil-less Metro mix until the first leaf was fully emerged, with 7-10 seedlings per pot. These plants were inoculated with an aqueous spore suspension of Septoria tritici either prior to or after fungicide treatments. After inoculation the plants were kept in 100% relative humidity (one day in a dark dew chamber followed by two to three days in a lighted dew chamber at 20° C.) to permit spores to germinate and infect the leaf. The plants were then transferred to a greenhouse set at 20° C. for disease to develop. When disease symptoms were fully expressed on the 1st leaves of untreated plants, infection levels were assessed on a scale of 0 to 100 percent disease severity. Percent disease control was calculated using the ratio of disease severity on treated plants relative to untreated plants.

[2] = Log D partition coefficient, CHI method; type: physicochemical
Description: The Log D partition coefficient was measured using the CHI method.

[3] = Thermodynamic water solubility; type: physicochemical

chromatographic logD [2] | H2O solubility (ppm) (thermodynamic) [3] | Structure (SMILES) | 3DC % control ([1]; 6.25 g/ha) [%] | 3DC % control ([1]; 25 g/ha) [%] | 3DC % control ([1]; 100 g/ha) [%] | 3DC % control ([1]; rate g/ha) [%] | 3DP % Control ([1]; 1.56 g/ha) [%] | 3DP % Control ([1]; 6.25 g/ha) [%] | 3DP % Control ([1]; 25 g/ha) [%] | 3DP % Control ([1]; 100 g/ha) [%] | fungicidal activity against the fungi responsible for leaf blotch of wheat (Septoria tritici) [1]
3.32 | 5.15 | OC(Cn1cncn1)(c1ccc(F)cc1F)C(F)(F)c1ccc(OCc2cccc(F)c2F)cn1 (stereo not drawn) [Example 45*, reference compound] | 86 | 85 | 86 | 78 | 58 | 89 | 93 | 95 | 
2.83 | 23.04 | N#Cc1ccc(Oc2ccc(C(F)(F)C(O)(Cn3ncnc3S)c3ccc(F)cc3F)nc2)cc1 (stereo not drawn) [Example 2, 4-((6-(2-(2,4-difluorophenyl)-1,1-difluoro-2-hydroxy-3-(5-thioxo-4,5-dihydro-1H-1,2,4-triazol-1-yl)propyl)pyridin-3-yl)oxy)benzonitrile] | 94 | 99 | 100 | 80 | 94 | 98 | 100 | 100 | improved fungicidal activity
2.9 | 37.33 | N#Cc1ccc(Oc2ccc(C(F)(F)C(O)(Cn3cncn3)c3ccc(F)cc3F)nc2)cc1 (stereo not drawn) [Example 1, 4-((6-(2-(2,4-difluorophenyl)-1,1-difluoro-2-hydroxy-3-(1H-1,2,4-triazol-1-yl)propyl)pyridin-3-yl)oxy)benzonitrile] | 100 | 100 | 100 | 99 | 96 | 96 | 96 | 100 | improved fungicidal activity
3.02 | 28.39 | N#Cc1ccc(Oc2ccc(C(F)(F)C(O)(Cn3cnnn3)c3ccc(F)cc3F)nc2)cc1 (stereo not drawn) [Example 5*, 4-(6-(2-(2,4-difluorophenyl)-1,1-difluoro-2-hydroxy-3-(1H-tetrazol-1-yl)propyl)pyridin-3-yloxy)benzonitile, reference compound] | 34 | 47 | 58 | 22 | 22 | 36 | 50 | 64 | 
